For experiment [1], the system named is oxido-squalene cyclase. Briefly: In vivo test to measure inhibition of oxido-squalene cyclase / cholesterol biosynthesis in the rat. The following applies: 2 mg/kg, oral, female rats. The method, then: (b) In vivo Test to Measure Inhibition of Oxido-Squalene Cyclase
The ability of a compound to inhibit oxido-squalene cyclase and/or inhibit cholesterol biosynthesis may be assessed by a routine laboratory procedure carried out in the rat. The test involves administration of the compound to rats on a reversed lighting regimen. Female rats (35-55 g) are housed in reverse lighting conditions (red light from 0200 h-1400 h) for a period of about 2 weeks prior to test. Animals are allowed free access to chow and drinking water throughout this period. At test, animals should weigh 100-140 g. The rats are dosed orally, with the compound (typically 10-50 mg/kg) formulated in a polyethylene glycol/hydroxypropylmethyl cellulose mix. After 1 hour the rats are given […] sodium mevalonate (15 μCi/kg) intraperitoneally. Two hours after administration of the compound the rats are terminated and a piece of liver removed and weighed. The tissue is saponified at 80° C. for 2 hours in an ethaniolic/potassium hydroxide solution (80% w/v aqueous KOH diluted 1:10 with ethanol). Water (2 ml) is added and the mixture extracted with iso-hexane (2×5 ml). The organic extracts are combined, evaporated to dryness under a stream of nitrogen and the residue is dissolved in a mixture of acetonitrile/iso-propanol (300 μl). […] The radio-label content of each fraction is assessed using a radio chemical flow detector. […]

Experiment [2] deals with oxido-squalene cyclase. Briefly: In vitro test to measure inhibition of microsomal oxido-squalene cyclase. The experiment is classed as biochemical. Conditions: 1 μM; rat liver microsomes. The protocol: (a) In vitro Test to Measure Inhibition of Oxido-squalene Cyclase
This test measures the inhibition of microsomal oxido-squalene cyclase in vitro by compounds at set concentrations in the incubation medium.
Microsomes are prepared from rat liver according to methods known in the art, for example, the method described in published European Patent Application No 324,421 and stored in liquid nitrogen prior to assay. Assay vials are kept at 37° C. throughout the incubation. The microsomes typically contain 15-20 mg of protein per ml of microsomes. For assay, 1 ml of microsomes are diluted by the addition of 722 μl of 50 mM phosphate buffer pH 7.4.
Phosphate buffered Tween 80 (polyoxyethylene sorbitan […]) is prepared by adding 0.1 g Tween 80 to 100 ml of 50 mM phosphate buffer.
A stock solution of oxido-squalene is made up as a solution in ethanol (0.65 mg.ml^-1). 18 μl of radio-labelled oxido-squalene (1 μCi.ml^-1) is evaporated to dryness under a stream of nitrogen and redissolved in 1 ml of ethanol and 1 ml of the stock solution of oxido-squalene is added.
The test compound is dissolved in dimethyl sulphoxide to give a 10^-4 M stock solution. […]
The samples are then placed in a water bath at 80° C. for 2 hours to saponify. […] Reaction rate is measured as the conversion of oxido-squalene to lanosterol, and the effects of test compounds are expressed as an inhibition of this process.

In the case of `Fc1cc(Br)ccc1CN1CCN(c2ccncc2)CC1` [Example 18, 1-(4-pyridyl)-4-(2-fluoro-4-bromobenzyl)piperazine], the “inhibition of cholesterol biosynthesis” value with oxido-squalene cyclase [1] was found to be 59%. `O=S(=O)(c1ccc(Br)cc1)N1CCN(c2ccncc2)CC1` [Example 25, 1-(4-pyridyl)-4-(4-bromophenylsulphonyl)piperazine]: the “inhibition of oxido-squalene cyclase (conversion of oxido-squalene to lanosterol)” value in the experiment with oxido-squalene cyclase [2] came to 100%.

As for `N#Cc1ccc(S(=O)(=O)Nc2ccc(N3CCN(c4ccncc4)CC3)cc2)cc1` [Example 27, 1-(4-pyridyl)-4-(4-cyanophenylsulphonamidophenyl)piperazine], in the experiment on oxido-squalene cyclase [1], the “inhibition of cholesterol biosynthesis” value stood at 70%.

The values above are taken from patent publication US6313127A, “Heterocyclic compounds useful as pharmaceutical agents” (Zeneca Limited, priority 1996, dated 2001).
